According to PMC8287944, “5-Fluorouracil blocks quorum-sensing of biofilm-embedded methicillin-resistant Staphylococcus aureus in mice” (Nucleic Acids Research, 2021):

How the values were obtained:
MRSA ATCC 43300 [1] = test system: MRSA ATCC 43300; design: method as in PMID 21576433; conditions: implant-associated MRSA infection model; cited from earlier work
MRSA ATCC 43300 [2] = assay: Murine tissue cage (foreign-body) infection model, prophylaxis; assay type: in vivo, Staphylococcus aureus; conditions: C57BL/6 mice; for Effect on biofilm / adherent MRSA / Effect on planktonic MRSA infection: prophylactic treatment; for Effect on biofilm / adherent MRSA: explanted cages 2 days post-infection; for Effect on planktonic MRSA infection: tissue cage fluid 2 days post-infection
Method: To evaluate the prophylactic efficacy of 5-FU against MRSA infection, we used our murine model of foreign-body infection, which closely mimics human implant-associated infections. This model of foreign-body infection ([26],[27]) was established with the approval of the Kantonale Veterinaeramt Basel-Stadt, Switzerland (permit no. 1710). Experiments were conducted according to the regulations of Swiss veterinary law and performed in the animal house of the Department of Biomedicine, University Hospital Basel, Switzerland. Healthy wild-type female C57BL/6 mice at 13 weeks of age (JanvierLabs, France) kept under specific pathogen-free conditions (biosafety level 2) were anesthetized, followed by the subcutaneous implantation of sterile cylindrical Teflon tissue cages (8.5 × 1 × 30 mm; volume: 1.9 ml) with 130 regularly spaced holes (Angst + Pfister AG, Zurich, Switzerland). They were housed in a 12 hr light/dark cycle (light from 7 am to 7 pm) in a temperature-controlled room (24°C) with free access to regular mice chow and water. Mice were randomly assigned to experimental groups, which were not involved in previous procedures. The mice were randomized into groups, which were treated as follows: saline (untreated growth control; n = 7), saline with 5.2844 mg/kg DPD (n = 4), 50 mg/kg daptomycin (DAP) (Novartis, Basel, Switzerland) (n = 11), 10 mg/kg 5-FU with and without 50 mg/kg DAP (each n = 8), 40 mg/kg 5-FU with or without 50 mg/kg DAP (n = 16 and n = 13, respectively), 40 mg/kg 5-FU with 1 μM DPD (n = 6), or 40 mg/kg 5-FU with 50 mg/kg DAP and 5.2844 mg/kg DPD (n = 8). DAP was given intraperitoneally immediately before implantation, and 5-FU and DPD was given immediately after implantation directly into the lumen of the cage. Afterwards, the cages were infected with 965 CFU of MRSA 43300. At 2 days post-infection, tissue cage fluid was collected, and the planktonic bacterial load was evaluated by plating on blood agar plates. In additional, mice were sacrificed and the tissue cages were explanted under aseptic conditions. The explanted tissue cages were washed twice with phosphate-buffered saline followed by 30 s vortexing, sonication for 3 min at 130 W and another 30 s vortexing to release adherent bacteria from the biofilm. Quantification of adherent bacteria was performed by plating appropriated dilutions on blood agar plates. To determine the prevention rate, the presence of any re-growth of MRSA was examined by further incubation of the cage in tryptic soy broth (TSB) for 48 h at 37°C. MRSA re-growth represents therapy failure, and the prevention rate was defined as the percentage of cages without growth in each treatment group.
Figure 6. Prophylactic effect of 5-FU against MRSA ATCC 43300 in a murine tissue cage infection model. Read-outs were obtained two days after infection with 965 CFU/cage and treatment with saline, saline with 1 μM AI-2, 50 mg/kg daptomycin (DAP), 10 mg/kg 5-FU with or without 50 mg/kg DAP, 40 mg/kg 5-FU with or without 50 mg/kg DAP or 40 mg/kg 5-FU with 50 mg/kg DAP and 5.2844 mg/kg DPD, as indicated below the panels. (A) Effect on planktonic MRSA 43300 two days post-infection. (B) Effect on adherent MRSA after explantation and sonication. (C) Prevention rate. Values in (A) and (B) are median ± IQR and those in (C) are % ([…]; **P < 0.001; ****P < 0.0001; ns, not significant). TEXT PRINTED IN THE PICTURE: (C) DAP: prevention rate (%): 18 | (C) DAP + 5-FU (10): prevention rate (%): 75 | (C) DAP + 5-FU (40): prevention rate (%): 94 | (C) DAP + 5-FU (40) + DPD: prevention rate (%): 12.5 DOUBTS OF THE COPYIST ABOUT THIS PICTURE: Panel C, DAP, prevention rate: 18 or 16 (small print) / Panel C, DAP + 5-FU (10), prevention rate: 75 or 76 (small print) / Panel C: which treatment belongs to each bar was read from the small +/- grid under the plot, so the column alignment is not fully certain

SE 1457 wild type = assay: AI-2 activity of SE 1457 wild type; assay type: cell-based, Staphylococcus epidermidis; conditions: 1 μM DPD with increasing 5-FU concentrations, 3 h
Method: (§1) To confirm that the phenotype could be restored, 1 μM synthetic (S)-4,5-dihydroxy-2,3-pentanedione (DPD) (Biosynth Carbosynth, Staad, Switzerland) was used. After 3 h under static conditions at 37°C, the supernatant was analysed for AI-2 activity with V. harveyi (MM32).
Supplementary Figure 4 | Bioactivity of 5-FU against Staphylococcus epidermidis (SE). a) Quorum-sensing-associated AI-2 activity of SE 1457 grown for 3 h in the presence of different 5-FU concentrations (note log scale). b) Reversing effect of 1 µM DPD on the AI-2-reducing action of 5-FU (dashed line indicates AI-2 baseline of SE 1457 without 5-FU). Values represent 3 biological replicates expressed as mean ± SD (*, p < 0.05; **, p < 0.01).

MRSA ATCC 43300 [3] = assay: AI-2 activity of MRSA ATCC 43300; assay type: cell-based, Staphylococcus aureus; conditions: 1 μM DPD
Method: as §1
Figure 4. Bioactivity of 5-FU against MRSA ATCC 43300. (A) Quorum sensing-associated AI-2 activity of MRSA 43300 grown for 3 h with different 5-FU concentrations. (B) Effect of different 5-FU concentrations on MRSA 43300 growth. (C) Interference with biofilm formation. (D) Effect on adherent MRSA 43300. Data points represent three biological replicates expressed as mean ± SD (**P < 0.01; ***P < 0.001; ****P < 0.0001).
Figure 5. Phenotype restoration with synthetic AI-2 supplementation. AI-2 activity of MRSA ATCC 43300 was evaluated with and without 1 μM DPD in the presence of different 5-FU concentrations. The dashed line indicates the baseline level of AI-2 of MRSA ATCC 43300 in the absence of 5-FU. Values represent 3 biological replicates expressed as mean ± SD (**P < 0.01; ****P < 0.0001).

[4] = test system: AI-2 production by HEK-293AI2 cells expressing MTAN and LuxS; design: method as in PMID 29739943; conditions: earlier proof-of-concept study; cited from earlier work

SMILES	Clearance rate of daptomycin used alone (MRSA ATCC 43300 [1]) [%]	Effect on biofilm / adherent MRSA (MRSA ATCC 43300 [2])	Effect on planktonic MRSA infection (MRSA ATCC 43300 [2])	AI-2 activity of SE 1457 with DPD added to 5-FU (SE 1457 wild type)	Baseline AI-2 activity of MRSA 43300 (MRSA ATCC 43300 [3])	AI-2 activity of 5-FU-challenged MRSA supplemented with DPD (MRSA ATCC 43300 [3]; MRSA ATCC 43300)	Effect of DPD on prevention rate (MRSA ATCC 43300 [2]; DPD co-administered with 5-FU and DAP)	AI-2 production in HEK cells [4]
CCCCCCCCCC(=O)N[C@@H](Cc1c[nH]c2ccccc12)C(=O)N[C@H](CC(N)=O)C(=O)N[C@@H](CC(=O)O)C(=O)N[C@@H]1C(=O)NCC(=O)N[C@@H](CCCN)C(=O)N[C@@H](CC(=O)O)C(=O)N[C@H](C)C(=O)N[C@@H](CC(=O)O)C(=O)NCC(=O)N[C@H](CO)C(=O)N[C@@H]([C@H](C)CC(=O)O)C(=O)N[C@@H](CC(=O)c2ccccc2N)C(=O)O[C@@H]1C [DAP, daptomycin]	< 20	neither 5-FU nor DAP alone was sufficient to contain the infection	failed to clear planktonic MRSA infections					
CC(=O)C(=O)[C@@H](O)CO [DPD, (S)-4,5-dihydroxy-2,3-pentanedione]		reversed the 5-FU-dependent inhibition	reversed the 5-FU-dependent inhibition	AI-2 activity returned almost to baseline	little influence	counteracted the effect of 5-FU	decreased the prevention rate to the level observed for DAP monotherapy	
Nc1ncnc2c([C@@H]3N[C@H](CO)[C@@H](O)[C@H]3O)c[nH]c12 [immunicillin-A]								significantly decreased
